This passage reports IC50 results from patent US20220135567A1, “TYK2 PSEUDOKINASE LIGANDS” (Ventyx Biosciences, Inc., priority 2019, published 2022).

Where only a bound is given, the exact number is not on record here.

The test system of the test is IFN-a/Jak1Tyk2. The test is described as follows: Co-stimulation assay in lysed whole blood: IFNa (JAK1/TYK2) stimulated STAT1 phosphorylation. The format is cell-based. The settings on record: 20 min, lysed human whole blood, IFNa 100 ng/mL + GM-CSF 10 ng/mL, pSTAT1 by flow cytometry. As to the method: Dilute RBC lysis buffer to 1× in distilled water. Add 2 mL blood to 38 mL of 1×RBC-lysis buffer. Incubate for 15 mins at RT, in dark. Spin at 300 g, 5 mins, to collect the pellet. Re-lyse if necessary. Re-suspend pellet in 5 mL of cRPMI.
Aliquot 80 μL of lysed human blood in to wells of 96 deep-well plate. Add 10 μl of (10× conc.) of different concentrations of compounds to all wells except controls (unstained and unstimulated) and mix it with the help of 100 uL multichannel. Add 10 uL of RPMI media in controls. For dilution of compounds and dilution range please refer Appendix. Incubate on water bath or CO2 incubator for 1 hour at 37° C. Add 10 μl of (10× conc.) of cytokine mix (GM-CSF and IFNa) (final conc. 10 ng/mL of GM-CSF and 100 ng/mL of IFNa) to each well except unstimulated and unstained controls and incubate further for 20 minutes on water bath at 37° C.
Add 900 μL of prewarmed 1× Fix/Lyse solution (Appendix) and mix it properly using 1000 μl multichannel, incubate further on water bath at 37° C. for 10 minutes (which includes time of addition). Centrifuge at 800×g for 5 minutes at 40° C.; remove 900 uL of supernatant and add 900 μL of 1×PBS. Centrifuge at 800×g for 5 minutes at 40° C., remove 900 μL of supernatant. Wash one more time with 900 μL of PBS (optional) and resuspend pellets in 100 uL of PBS.
Disrupt the pellet by gentle tapping and resuspend in 1000 μL of BD Phosflow Perm Buffer III and incubate plate on ice for 30 minutes. Centrifuge plate at 800×g for 5 minutes at 40° C. Wash two more times with 1000 μL of BD Pharmingen Stain Buffer.
Disrupt the pellet by gentle tapping. Resuspend pellets in 100 uL of Stain Buffer and add 5 μL of pSTAT5_AF488 Ab and 5 uL of pSTAT1_PE in all wells except unstained control and mix properly using 200 μl multichannel, incubate overnight at […]. Add 900 μL of wash buffer and centrifuge at 1800 rpm for 3 minutes at […]. Wash one more time with 1000 μL of BD Pharmingen Stain Buffer. Finally resuspend the pellet in 300 uL of BD Pharmingen Stain Buffer. Transfer the cells to 96-well v-bottom plate and acquire the cells in Beckman Coulter CytExpert. Acquiring cells in Flow Cytometer: Keep the threshold value to 250 and cell concentration should not exceed 100-500 cells/μL. Acquire at least 5,000-10,000 cells.
Cytokine dilution: 1) GM-CSF Stock at 100 ug/mL. Prepare an intermediate dilution of 1 ug/mL by adding 2 uL of stock into 198 uL of cRPMI. Further dilute to 100 ng/mL by adding 100 uL of the intermediate stock to 900 uL of cRPMI. 2) IFNa Stock at 200 ug/mL. Dilute IFNa stock 1:200 by adding 5 uL of stock into the 1000 uL of 100 ng/mL GM-CSF working stock as above to give a combined working stock of 1000 ng/mL of IFNa and 100 ng/mL GM-CSF (10×). Keep it on ice until used.
Lyse/Fix buffer preparation: Dilute 5× Lyse/Fix buffer to 1× using MQ water and keep at 37° C. until used.
BD Phosflow perm buffer III: Keep on ice/fridge.

For orientation: IC50 means the point on the concentration scale where inhibition reaches its midpoint. Turning to `CNc1cc(Nc2cccn(-c3ccc(OC)nn3)c2=O)nc2c(C(=O)NCC(F)(F)F)cnn12` [Compound 67, 5-((1-(6-methoxypyridazin-3-yl)-2-oxo-1,2-dihydropyridin-3-yl)amino)-7-(methylamino)-N-(2,2,2-trifluoroethyl)pyrazolo[1,5-a]pyrimidine-3-carboxamide], the IC50 is 1000 to 10000 nM.

Regarding `CNc1cc(Nc2cccc3c2OCCO3)nc2c(C(=O)NC3CCOC3)cnn12` (stereo not shown) [Compound 68, 5-((2,3-dihydrobenzo[b][1,4]dioxin-5-yl)amino)-7-(methylamino)-N-(tetrahydrofuran-3-yl)pyrazolo[1,5-a]pyrimidine-3-carboxamide], the IC50 lay in the range of 100 to 1000 nM.

On to `CNc1cc(Nc2ccnn2CCO)nc2c(C(=O)NC3CC3)cnn12` [Compound 69, N-cyclopropyl-5-((1-(2-hydroxyethyl)-1H-pyrazol-5-yl)amino)-7-(methylamino)pyrazolo[1,5-a]pyrimidine-3-carboxamide], for which the IC50 is 1000 to 10000 nM.

With `CNc1cc(Nc2ccnn2CC(F)(F)F)nc2c(C(=O)NC3CC3)cnn12` [Compound 70, N-cyclopropyl-7-(methylamino)-5-((1-(2,2,2-trifluoroethyl)-1H-pyrazol-5-yl)amino)pyrazolo[1,5-a]pyrimidine-3-carboxamide], the half-maximal inhibitory concentration (IC50) is 100 to 1000 nM.

In the case of `CNC(=O)c1cnn2c(NC)cc(Nc3cc(F)cc(F)c3OC)nc12` [Compound 71, 5-((3,5-difluoro-2-methoxyphenyl)amino)-N-methyl-7-(methylamino)pyrazolo[1,5-a]pyrimidine-3-carboxamide], the IC50 fell in the range of 1000 to 10000 nM.

As to `CCNc1cc(Nc2cc(C)cc(C)c2)nc2c(C(N)=O)cnn12` [Compound 72, 5-((3,5-dimethylphenyl)amino)-7-(ethylamino)pyrazolo[1,5-a]pyrimidine-3-carboxamide], the IC50 was in the range of 100 to 1000 nM.

On to `CNc1cc(Nc2cc(F)cc(F)c2OC)nc2c(C(=O)NC3CC3F)cnn12` (stereo not shown) [Compound 73, 5-((3,5-difluoro-2-methoxyphenyl)amino)-N-(2-fluorocyclopropyl)-7-(methylamino)pyrazolo[1,5-a]pyrimidine-3-carboxamide], for which the half-inhibitory concentration (IC50) is below 100 nM.

For `CNc1cc(Nc2cc(F)cc(F)c2OC)nc2c(C(N)=O)cnn12` [Compound 74, 5-((3,5-difluoro-2-methoxyphenyl)amino)-7-(methylamino)pyrazolo[1,5-a]pyrimidine-3-carboxamide], the IC50 is above 300 nM.

`CNc1cc(Nc2cccc3c2OCCO3)nc2c(C(=O)NC3CC(C)(O)C3)cnn12` (stereo not shown) [Compound 75, 5-((2,3-dihydrobenzo[b][1,4]dioxin-5-yl)amino)-N-(3-hydroxy-3-methylcyclobutyl)-7-(methylamino)pyrazolo[1,5-a]pyrimidine-3-carboxamide]: the IC50 is below 100 nM.

As to `[2H]C([2H])([2H])Nc1cc(Nc2cc(F)cc3c2OCCO3)nc2c(C(N)=O)cnn12` [Compound 76, 5-((7-fluoro-2,3-dihydrobenzo[b][1,4]dioxin-5-yl)amino)-7-((methyl-d3)amino)pyrazolo[1,5-a]pyrimidine-3-carboxamide], the IC50 is below 100 nM.

As to `[2H]C([2H])([2H])Nc1cc(Nc2cc(Cl)cc3c2OCCO3)nc2c(C(=O)NC3CC3)cnn12` [Compound 77, 5-((7-chloro-2,3-dihydrobenzo[b][1,4]dioxin-5-yl)amino)-N-cyclopropyl-7-((methyl-d3)amino)pyrazolo[1,5-a]pyrimidine-3-carboxamide], the concentration for half-maximal inhibition (IC50) was below 100 nM.

Regarding `[2H]C([2H])([2H])NC(=O)c1cnn2c(NC([2H])([2H])[2H])cc(Nc3cc(F)cc4c3OCCO4)nc12` [Compound 78, 5-((7-fluoro-2,3-dihydrobenzo[b][1,4]dioxin-5-yl)amino)-N-(methyl-d3)-7-((methyl-d3)amino)pyrazolo[1,5-a]pyrimidine-3-carboxamide], the IC50 was in the range of 100 to 1000 nM.

As for `[2H]C([2H])([2H])Nc1cc(Nc2cc(F)cc3c2OCCO3)nc2c(C(=O)N[C@H]3C[C@H]3F)cnn12` [Compound 79, 5-((7-fluoro-2,3-dihydrobenzo[b][1,4]dioxin-5-yl)amino)-N-((1S,2R)-2-fluorocyclopropyl)-7-((methyl-d3)amino)pyrazolo[1,5-a]pyrimidine-3-carboxamide], the IC50 is below 100 nM.

`[2H]C([2H])([2H])Nc1cc(Nc2cc(F)cc3c2OCCO3)nc2c(C(=O)N[C@@H]3C[C@@H]3F)cnn12` [Compound 80, 5-((7-fluoro-2,3-dihydrobenzo[b][1,4]dioxin-5-yl)amino)-N-((1R,2S)-2-fluorocyclopropyl)-7-((methyl-d3)amino)pyrazolo[1,5-a]pyrimidine-3-carboxamide]: the IC50 was below 100 nM.

On to `CNc1cc(Nc2cccc3c2CCCO3)nc2c(C(=O)NCC(C)(C)CO)cnn12` [Compound 81, 5-(chroman-5-ylamino)-N-(3-hydroxy-2,2-dimethylpropyl)-7-(methylamino)pyrazolo[1,5-a]pyrimidine-3-carboxamide], for which the 50% inhibitory concentration (IC50) was 100 to 1000 nM.

For the molecule `CNc1cc(Nc2cccc3c2CCCO3)nc2c(C(=O)NC3CC3)cnn12` [Compound 82, 5-(chroman-5-ylamino)-N-cyclopropyl-7-(methylamino)pyrazolo[1,5-a]pyrimidine-3-carboxamide], the IC50 lay in the range of 100 to 1000 nM.

On to `[2H]C([2H])([2H])n1cccc(Nc2cc(NC)n3ncc(C(=O)N[C@H]4C[C@H]4F)c3n2)c1=O` [Compound 83, N-((1S,2R)-2-fluorocyclopropyl)-5-((1-(methyl-d3)-2-oxo-1,2-dihydropyridin-3-yl)amino)-7-(methylamino)pyrazolo[1,5-a]pyrimidine-3-carboxamide], for which the IC50 lay within 100 to 1000 nM.

Turning to `[2H]C([2H])([2H])Nc1cc(Nc2cccc3c2OCCO3)nc2c(C(=O)NCC(C)(C)CO)cnn12` [Compound 84, 5-((2,3-dihydrobenzo[b][1,4]dioxin-5-yl)amino)-N-(3-hydroxy-2,2-dimethylpropyl)-7-((methyl-d3)amino)pyrazolo[1,5-a]pyrimidine-3-carboxamide], the concentration for half-maximal inhibition (IC50) is below 100 nM.

In the case of `[2H]C([2H])([2H])n1cccc(Nc2cc(NC)n3ncc(C(=O)N[C@@H]4C[C@@H]4F)c3n2)c1=O` [Compound 85, N-((1R,2S)-2-fluorocyclopropyl)-5-((1-(methyl-d3)-2-oxo-1,2-dihydropyridin-3-yl)amino)-7-(methylamino)pyrazolo[1,5-a]pyrimidine-3-carboxamide], the IC50 was below 100 nM.

Take `CNc1cc(Nc2cccn(C)c2=O)nc2c(C(=O)NC3CC(O)C3)cnn12` (stereo not shown) [Compound 86, N-(3-hydroxycyclobutyl)-5-((1-methyl-2-oxo-1,2-dihydropyridin-3-yl)amino)-7-(methylamino)pyrazolo[1,5-a]pyrimidine-3-carboxamide]: the IC50 was above 3000 nM.

With `CNc1cc(Nc2cccn(C)c2=O)nc2c(C(=O)NC3CC(C#N)C3)cnn12` (stereo not shown) [Compound 87, N-(3-cyanocyclobutyl)-5-((1-methyl-2-oxo-1,2-dihydropyridin-3-yl)amino)-7-(methylamino)pyrazolo[1,5-a]pyrimidine-3-carboxamide], the half-inhibitory concentration (IC50) lay within 100 to 1000 nM.

For `CNc1cc(Nc2cccn(C)c2=O)nc2c(C(=O)NC3CC(OC)C3)cnn12` (stereo not shown) [Compound 88, N-(3-methoxycyclobutyl)-5-((1-methyl-2-oxo-1,2-dihydropyridin-3-yl)amino)-7-(methylamino)pyrazolo[1,5-a]pyrimidine-3-carboxamide], the IC50 is above 3000 nM.
